From publication PMC10562414, “GLP-1R signaling neighborhoods associate with the susceptibility to adverse drug reactions of incretin mimetics” (Nature Communications, 2023)

Columns and labels:
Format in all cases: cell-based
[1] = target: T1, GLP-1R (Homo sapiens, UniProt P43220); test: ebBRET pathway activation (15 pathways) at early endosomes (rGFP-FYVE); settings: for Efficacy (normalized) / Potency (logEC50) / Emax: Early endosomes
Protocol: Subcellular resolution was achieved by using organelle-specific energy acceptors for early endosomes, the Golgi apparatus and the endoplasmic reticulum.
Data are represented as the mean ± SEM (n = 3 biologically independent experiments). EE early endosomes, GA Golgi apparatus, ER endoplasmic reticulum.
HEK293 cells were cultured in DMEM supplemented with 10% FBS, 1% penicillin/streptomycin, propagated in plastic flasks and grown at 37 °C in 5% CO2 and 90% humidity. […] After a 48-hour incubation, cells were washed once with HBSS and maintained in the same buffer.
Best fit values were excluded if EC50 was outside of the concentration range tested or if the span was negative.
Pharmacological characterization of GLP-1R agonist signaling
profiles at early endosomes. a, Illustration depicting the ebBRET approach to monitoring
signaling at early endosomes. b, Concentration-response curves of GLP-1R agonists across 15
pathways at early endosomes using rGFP-F YVE. Data are represented by the non-linear fit and
scaled according to the highest responding drug (n=3 biologic ally independent samples).
Drug-s pecific polar area diagrams for efficacy (normalized to the highest responding drug) (c)
Drugs were deemed to activate
a given pathway after comparing the top and bottom parameters from non-linear regression by
Jaccard similarity index for efficacy (e) and potency (f) quantifies similarities and
differences across drug responses.
Drug- induced transducer engagement by GLP- 1R at early
endosomes. Agonist concentration response curves for 15 transducers at early endosomes.
Drugs were deemed to activate a given pathway after comparing the top and bottom parameters
from non-linear regression by one-sided extra sum-o f-s quares F-t est followed by Bonferroni
Data are represented as the mean ± SEM (n=3
biologically independent samples). Sigmoidal dose-r esponse curves are present for
responsive pathways and flat lines indicate non-r esponding pathway s.
Polar area diagrams depict pathway activation at early endosomes.
Pathway-specific polar area diagrams for efficacy (normalized to the highest responding drug) (a)
Drugs were deemed to activate a
given pathway after comparing the top and bottom parameters from non-linear regression by

[2] = target: T1, GLP-1R; test: ebBRET pathway activation (15 transducers), normalized efficacy and potency, Supplementary Fig. 11 (cellular compartment not given)
[3] = target: T1, GLP-1R; test: ebBRET pathway activation (effector membrane translocation, 15 pathways) at the plasma membrane (rGFP-CAAX); parameters: Potency (logEC50): scale not given here; settings: for Efficacy (normalized) / Emax / Potency (logEC50): Plasma membrane; for Efficacy (normalized): Fig. 2c; for Potency (logEC50): Fig. 2d
[4] = plasma membrane rGFP-CAAX, HEK293, PDZRhoGEF-RlucII, agonist incubation 0 min, as tabulated for polar area diagram, n=3-6
[5] = plasma membrane rGFP-CAAX, HEK293, Rap1Gap-RlucII, agonist incubation 0 min, as tabulated for polar area diagram, n=3-6
[6] = plasma membrane rGFP-CAAX, HEK293, Rap1Gap-RlucII, agonist incubation 0 min, normalized to the highest responding drug, F test P < 0.00625, n=3-6
[7] = plasma membrane rGFP-CAAX, HEK293, p63RhoGEF-RlucII, agonist incubation 0 min, as tabulated for polar area diagram, n=3-6
[8] = plasma membrane rGFP-CAAX, HEK293, p63RhoGEF-RlucII, agonist incubation 0 min, normalized to the highest responding drug, F test P < 0.00625, n=3-6

T1 sequence (P43220 24-463): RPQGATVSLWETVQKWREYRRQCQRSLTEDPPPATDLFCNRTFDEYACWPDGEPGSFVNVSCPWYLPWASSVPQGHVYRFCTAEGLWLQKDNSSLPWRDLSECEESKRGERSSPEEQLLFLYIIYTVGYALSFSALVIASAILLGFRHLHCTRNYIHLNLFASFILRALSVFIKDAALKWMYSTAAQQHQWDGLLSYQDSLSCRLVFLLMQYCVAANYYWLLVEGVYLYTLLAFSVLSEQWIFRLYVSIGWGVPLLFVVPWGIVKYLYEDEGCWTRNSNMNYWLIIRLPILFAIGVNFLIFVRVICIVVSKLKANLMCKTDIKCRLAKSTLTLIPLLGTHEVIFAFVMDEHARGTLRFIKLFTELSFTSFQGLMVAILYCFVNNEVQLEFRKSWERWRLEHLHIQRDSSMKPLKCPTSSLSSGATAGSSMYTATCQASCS

For `N#Cc1ccc(COc2cccc(C3CCN(Cc4nc5ccc(C(=O)O)cc5n4C[C@@H]4CCO4)CC3)n2)c(F)c1` [Danuglipron], the “Efficacy (normalized)” value ([1]; GRK2/Gβγ) was 0.507, the “Potency (logEC50)” value ([1]; GRK2/Gβγ) was 0.4671 and the “Efficacy (normalized)” value ([1]; Gα11) was 0. The Emax ([1]; Gα11) was 0, the “Potency (logEC50)” value ([1]; Gα11) was 0 and the “Efficacy (normalized)” value ([1]; Gα12) was 0. The Emax ([1]; Gα12) was 0, the “Potency (logEC50)” value ([1]; Gα12) was 0 and the “Efficacy (normalized)” value ([1]; Gα13) was 0. The Emax ([1]; Gα13) was 0, the “Potency (logEC50)” value ([1]; Gα13) was 0 and the “Efficacy (normalized)” value ([1]; Gα14) was 0.9516. The Emax ([1]; Gα14) was 0.02161, the “Potency (logEC50)” value ([1]; Gα14) was 0.7414 and the “Efficacy (normalized)” value ([1]; Gα15) was 0. The Emax ([1]; Gα15) was 0, the “Potency (logEC50)” value ([1]; Gα15) was 0 and the “Efficacy (normalized)” value ([1]; Gαi1) was 0. For the same compound, the Emax ([1]; Gαi1) was 0, the “Potency (logEC50)” value ([1]; Gαi1) was 0 and the “Efficacy (normalized)” value ([1]; Gαi2) was 0. For the same compound, the Emax ([1]; Gαi2) was 0, the “Potency (logEC50)” value ([1]; Gαi2) was 0 and the “Efficacy (normalized)” value ([1]; Gαi3) was 0. For the same compound, the Emax ([1]; Gαi3) was 0, the “Potency (logEC50)” value ([1]; Gαi3) was 0 and the “Efficacy (normalized)” value ([1]; GαoA) was 0.4649. For the same compound, the Emax ([1]; GαoA) was 0.009912, the “Potency (logEC50)” value ([1]; GαoA) was 0.573 and the “Efficacy (normalized)” value ([1]; GαoB) was 0.7256. The Emax ([1]; GαoB) was 0.03076, the “Potency (logEC50)” value ([1]; GαoB) was 0.2577 and the “Efficacy (normalized)” value ([1]; Gαq) was 0. For the same compound, the Emax ([1]; Gαq) was 0, the “Potency (logEC50)” value ([1]; Gαq) was 0 and the “Efficacy (normalized)” value ([1]; Gαs) was 0. The Emax ([1]; Gαs) was 0, the “Potency (logEC50)” value ([1]; Gαs) was 0 and the “Efficacy (normalized)” value ([1]; Gαz) was 0.5189. The Emax ([1]; Gαz) was 0.05365, the “Potency (logEC50)” value ([1]; Gαz) was 0.2291 and the “Efficacy (normalized)” value ([1]; βARR2) was 0.458. For the same compound, the “Potency (logEC50)” value ([1]; βARR2) was 0.384, the Emax ([1]; GRK/Gβγ) was 0.1194 and the Emax ([1]; βARR) was 0.07877. For the same compound, the “mGs recruitment at early endosomes, in words” value ([1]; Rluc8-mGs, rGFP-FYVE, 60 min, n = 3) was “did not promote mGs recruitment at early endosomes at the concentrations tested”, the “Efficacy (normalized), GRK2/Gβγ” value ([2]; Supplementary Fig. 11a, GRK2/Gβγ) was 0.507 and the “Efficacy (normalized), Gα11” value ([2]; Supplementary Fig. 11a, Gα11) was 0. For the same compound, the “Efficacy (normalized), Gα12” value ([2]; Supplementary Fig. 11a, Gα12) was 0, the “Efficacy (normalized), Gα13” value ([2]; Supplementary Fig. 11a, Gα13) was 0 and the “Efficacy (normalized), Gα14” value ([2]; Supplementary Fig. 11a, Gα14) was 0.9516. The “Efficacy (normalized), Gα15” value ([2]; Supplementary Fig. 11a, Gα15) was 0, the “Efficacy (normalized), Gαi1” value ([2]; Supplementary Fig. 11a, Gαi1) was 0 and the “Efficacy (normalized), Gαi2” value ([2]; Supplementary Fig. 11a, Gαi2) was 0. The “Efficacy (normalized), Gαi3” value ([2]; Supplementary Fig. 11a, Gαi3) was 0, the “Efficacy (normalized), GαoA” value ([2]; Supplementary Fig. 11a, GαoA) was 0.4649 and the “Efficacy (normalized), GαoB” value ([2]; Supplementary Fig. 11a, GαoB) was 0.7256. For the same compound, the “Efficacy (normalized), Gαq” value ([2]; Supplementary Fig. 11a, Gαq) was 0, the “Efficacy (normalized), Gαs” value ([2]; Supplementary Fig. 11a, Gαs) was 0 and the “Efficacy (normalized), Gαz” value ([2]; Supplementary Fig. 11a, Gαz) was 0.5189. For the same compound, the “Efficacy (normalized), βARR2” value ([2]; Supplementary Fig. 11a, βARR2) was 0.458, the “Potency (logEC50), Gα11” value ([2]; Supplementary Fig. 11b, Gα11) was 0 and the “Potency (logEC50), Gα12” value ([2]; Supplementary Fig. 11b, Gα12) was 0. For the same compound, the “Potency (logEC50), Gα13” value ([2]; Supplementary Fig. 11b, Gα13) was 0, the “Potency (logEC50), Gα14” value ([2]; Supplementary Fig. 11b, Gα14) was 0.7414 and the “Potency (logEC50), Gα15” value ([2]; Supplementary Fig. 11b, Gα15) was 0. For the same compound, the “Potency (logEC50), Gαi1” value ([2]; Supplementary Fig. 11b, Gαi1) was 0, the “Potency (logEC50), Gαi2” value ([2]; Supplementary Fig. 11b, Gαi2) was 0 and the “Potency (logEC50), Gαi3” value ([2]; Supplementary Fig. 11b, Gαi3) was 0. The “Potency (logEC50), GαoA” value ([2]; Supplementary Fig. 11b, GαoA) was 0.573, the “Potency (logEC50), GαoB” value ([2]; Supplementary Fig. 11b, GαoB) was 0.2577 and the “Potency (logEC50), Gαq” value ([2]; Supplementary Fig. 11b, Gαq) was 0. The “Potency (logEC50), Gαs” value ([2]; Supplementary Fig. 11b, Gαs) was 0, the “Potency (logEC50), Gαz” value ([2]; Supplementary Fig. 11b, Gαz) was 0.2291 and the “Potency (logEC50), βARR2” value ([2]; Supplementary Fig. 11b, βARR2) was 0.384. For the same compound, the “pathway activation at the plasma membrane, in words” value ([3]; 15 pathways, HEK293, ebBRET) was “biased away from βARR towards Gs and Gi/o”, the “Efficacy (normalized)” value ([3]; GRK2/Gβγ) was 0.6954 and the Emax ([3]; GRK/Gβγ) was 0.5067. For the same compound, the Emax ([3]; Gα11) was 0, the “Efficacy (normalized)” value ([3]; Gα11) was 0 and the “Potency (logEC50)” value ([3]; Gα11) was 0. The Emax ([3]; Gα12) was 0, the “Efficacy (normalized)” value ([3]; Gα12) was 0 and the “Potency (logEC50)” value ([3]; Gα12) was 0. The Emax ([3]; Gα13) was 0, the “Efficacy (normalized)” value ([3]; Gα13) was 0 and the “Potency (logEC50)” value ([3]; Gα13) was 0. For the same compound, the Emax ([3]; Gα14) was 0, the “Efficacy (normalized)” value ([3]; Gα14) was 0 and the “Potency (logEC50)” value ([3]; Gα14) was 0. The Emax ([3]; Gα15) was 0, the “Efficacy (normalized)” value ([3]; Gα15) was 0 and the “Potency (logEC50)” value ([3]; Gα15) was 0. The Emax ([3]; Gαi1) was 0.0218, the “Efficacy (normalized)” value ([3]; Gαi1) was 0.3729 and the “Potency (logEC50)” value ([3]; Gαi1) was 0.3182. The Emax ([3]; Gαi2) was 0.2304, the “Efficacy (normalized)” value ([3]; Gαi2) was 0.9309 and the “Potency (logEC50)” value ([3]; Gαi2) was 0.1266. The Emax ([3]; Gαi3) was 0.03983, the “Efficacy (normalized)” value ([3]; Gαi3) was 0.6445 and the “Potency (logEC50)” value ([3]; Gαi3) was 0.2454. The Emax ([3]; GαoA) was 0, the “Efficacy (normalized)” value ([3]; GαoA) was 0 and the “Potency (logEC50)” value ([3]; GαoA) was 0. The Emax ([3]; GαoB) was 0.4329, the “Efficacy (normalized)” value ([3]; GαoB) was 0.5975 and the “Potency (logEC50)” value ([3]; GαoB) was 0.326. For the same compound, the Emax ([3]; Gαq) was 0, the “Efficacy (normalized)” value ([3]; Gαq) was 0 and the “Potency (logEC50)” value ([3]; Gαq) was 0. For the same compound, the Emax ([3]; Gαs) was 1.832, the “Efficacy (normalized)” value ([3]; Gαs) was 0.7714 and the “Potency (logEC50)” value ([3]; Gαs) was 0.5221. For the same compound, the Emax ([3]; Gαz) was 0.2013, the “Efficacy (normalized)” value ([3]; Gαz) was 0.678 and the “Potency (logEC50)” value ([3]; Gαz) was 0.3391. The Emax ([3]; βARR) was 0.3843, the “Efficacy (normalized)” value ([3]; βARR2) was 0.2947 and the “Efficacy (normalized), GRK2/Gβγ” value ([3]; plasma membrane rGFP-CAAX, HEK293, GRK2-D110A-RlucII, agonist incubation 0 min, normalized to the highest responding drug, F test P < 0.00625, n=3-6) was 0.6954. For the same compound, the “Potency (logEC50), Gα12” value [3, 4] was 0, the “Potency (logEC50), Gα13” value [3, 4] was 0 and the “Efficacy (normalized), Gα13” value ([3]; plasma membrane rGFP-CAAX, HEK293, PDZRhoGEF-RlucII, agonist incubation 0 min, normalized to the highest responding drug, F test P < 0.00625, n=3-6) was 0. For the same compound, the “Potency (logEC50), Gαi1” value [3, 5] was 0.3182, the “Potency (logEC50), Gαi2” value [3, 5] was 0.1266 and the “Potency (logEC50), Gαi3” value [3, 5] was 0.2454. The “Potency (logEC50), GαoA” value [3, 5] was 0, the “Potency (logEC50), GαoB” value [3, 5] was 0.326 and the “Potency (logEC50), Gαz” value [3, 5] was 0.3391. For the same compound, the “Efficacy (normalized), Gαi1” value [3, 6] was 0.3729, the “Efficacy (normalized), Gαi2” value [3, 6] was 0.9309 and the “Efficacy (normalized), Gαi3” value [3, 6] was 0.6445. The “Efficacy (normalized), GαoA” value [3, 6] was 0, the “Efficacy (normalized), GαoB” value [3, 6] was 0.5975 and the “Efficacy (normalized), Gαz” value [3, 6] was 0.678. The “Potency (logEC50), Gαs” value ([3]; plasma membrane rGFP-CAAX, HEK293, Rluc8-mGs, agonist incubation 0 min, as tabulated for polar area diagram, n=3-6) was 0.5221, the “Efficacy (normalized), Gαs” value ([3]; plasma membrane rGFP-CAAX, HEK293, Rluc8-mGs, agonist incubation 0 min, normalized to the highest responding drug, F test P < 0.00625, n=3-6) was 0.7714 and the “Potency (logEC50), Gα11” value [3, 7] was 0. For the same compound, the “Potency (logEC50), Gα14” value [3, 7] was 0, the “Potency (logEC50), Gα15” value [3, 7] was 0 and the “Potency (logEC50), Gαq” value [3, 7] was 0. For the same compound, the “Efficacy (normalized), Gα11” value [3, 8] was 0, the “Efficacy (normalized), Gα14” value [3, 8] was 0 and the “Efficacy (normalized), Gα15” value [3, 8] was 0. For the same compound, the “Efficacy (normalized), Gαq” value [3, 8] was 0 and the “Efficacy (normalized), βARR2” value ([3]; plasma membrane rGFP-CAAX, HEK293, β-arrestin-2-RlucII, agonist incubation 0 min, normalized to the highest responding drug, F test P < 0.00625, n=3-6) was 0.2947.
